# Measurements taken from US10829481B2, “Benzimidazole derivatives as modulators of ROR-gamma” (Vitae Pharmaceuticals, LLC, priority 2016, dated 2020).
# Biological target: full-length RORγt in Jurkat cells (Homo sapiens (Human), UniProt P51449)
# Assay: RORγt 5×RORE Assay in Jurkat Cells (Assay 2)
# Format: cell-based
# Conditions: 5×RORE Nanoluc luciferase reporter
# Experimental: RORγt 5×RORE Assay in Jurkat Cells (Assay 2)
# Compounds described herein were tested for RORγ inverse agonist activity in a cell-based, transcriptional activity assay. Secreted Nanoluc® luciferase was used as a reporter for transcriptional activity of the full-length RORγt in Jurkat cells (ATCC, Cat. #TIB-152). […] (Promega, Cat. #N1021) using KpnI and HindIII restriction sites. […] After 5-6 hrs of incubation at 37° C./5% CO2, the cells were collected, resuspended in phenol-red free RPMI media containing 10% (v/v) delipidated FBS (Hyclone, Cat. #SH30855.03) and dispensed into 96-well clear bottom tissue culture plates (CoStar, Cat. #3603), at 80,000 cells per well. Tested compounds were added to the cells in the same media (final concentration of DMSO was 0.1% (v/v)), and the plates were incubated at 37° C./5% CO2 for 16-18 hrs. Luciferase activity in the conditioned supernatants was determined with NanoGlo® assay reagents (Promega, Cat. #N1130).
# Chain of full-length RORγt in Jurkat cells (P51449 other isoform, or with tags, fused parts or gaps): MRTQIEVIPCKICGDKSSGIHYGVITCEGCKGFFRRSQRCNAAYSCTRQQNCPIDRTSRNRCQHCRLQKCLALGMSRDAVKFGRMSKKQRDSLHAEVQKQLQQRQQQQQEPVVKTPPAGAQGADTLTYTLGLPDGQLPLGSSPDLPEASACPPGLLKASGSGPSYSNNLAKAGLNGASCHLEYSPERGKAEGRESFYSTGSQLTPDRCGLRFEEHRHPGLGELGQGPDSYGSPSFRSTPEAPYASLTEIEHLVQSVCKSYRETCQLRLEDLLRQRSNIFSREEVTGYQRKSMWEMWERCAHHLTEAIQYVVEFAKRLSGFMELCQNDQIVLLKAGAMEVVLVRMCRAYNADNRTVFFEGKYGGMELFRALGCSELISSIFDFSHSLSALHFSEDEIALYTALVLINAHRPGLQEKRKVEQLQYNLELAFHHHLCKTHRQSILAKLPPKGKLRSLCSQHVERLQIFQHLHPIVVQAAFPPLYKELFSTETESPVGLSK
row,IC50 [nM],Molecule
1,< 100,"CCS(=O)(=O)c1ccc([C@H](CO)NC(=O)c2ccc3c(c2)nc(C2CC2)n3Cc2cccc3c2OC(F)(F)O3)cc1 [I-12, (R)-2-cyclopropyl-1-((2,2-difluorobenzo[d][1,3]dioxol-4-yl)methyl)-N-(1-(4-(ethylsulfonyl)phenyl)-2-hydroxyethyl)-1H-benzo[d]imidazole-5-carboxamide]"
2,< 100,"CCS(=O)(=O)c1ccc([C@H](CO)NC(=O)c2ccc3c(c2)nc(C2(F)CCC2)n3Cc2cccc3c2OC(F)(F)O3)cc1 [I-19, (R)-1-((2,2-difluorobenzo[d][1,3]dioxol-4-yl)methyl)-N-(1-(4-(ethylsulfonyl)phenyl)-2-hydroxyethyl)-2-(1-fluorocyclobutyl)-1H-benzo[d]imidazole-5-carboxamide]"
3,< 100,"CCS(=O)(=O)c1ccc(CNC(=O)c2ccc3c(c2)nc(C(F)(F)F)n3Cc2cccc3c2OC(F)(F)O3)[n+]([O-])c1 [I-161, 2-((1-((2,2-difluorobenzo[d][1,3]dioxol-4-yl)methyl)-2-(trifluoromethyl)-1H-benzo[d]imidazole-5-carboxamido)methyl)-5-(ethylsulfonyl)pyridine 1-oxide]"

row,Molecule,IC50 [nM]
1,"1-((2,2-difluorobenzo[d][1,3]dioxol-4-yl)methyl)-2-(difluoromethyl)-N-(4-((2-hydroxyethyl)sulfonyl)benzyl)-1H-benzo[d]imidazole-5-carboxamide [I-44]",< 100
2,"1-((2,2-difluorobenzo[d][1,3]dioxol-4-yl)methyl)-N-((R)-1-(4-(ethylsulfonyl)phenyl)-2-hydroxyethyl)-2-((R)-tetrahydrofuran-2-yl)-1H-benzo[d]imidazole-5-carboxamide [I-15]",< 100

# Biological target: recombinant RORγ Ligand Binding Domain (LBD) protein (Homo sapiens (Human), UniProt P51449)
# Sequence (P51449 269-508): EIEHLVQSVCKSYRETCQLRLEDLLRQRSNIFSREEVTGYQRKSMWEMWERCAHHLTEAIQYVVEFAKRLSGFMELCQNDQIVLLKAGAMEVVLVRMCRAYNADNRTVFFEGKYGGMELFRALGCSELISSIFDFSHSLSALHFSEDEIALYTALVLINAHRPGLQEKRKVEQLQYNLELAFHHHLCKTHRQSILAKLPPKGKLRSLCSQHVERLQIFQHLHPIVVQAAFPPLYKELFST
# Assay: Radio-Ligand RORγ Binding Assay (Assay 1)
# Conditions: competition with 25-hydroxy [26,27-3H]-cholesterol, SPA
# Experimental: Radio-Ligand RORγ Binding Assay (Assay 1)
# Compounds described herein were tested for ability to bind to RORγ in a cell-free competition assay with commercially available radio-ligand (RL), 25-hydroxy [26,27-^3H]-cholesterol (PerkinElmer, Cat. #NET674250UC), for a ligand binding site on a recombinant RORγ Ligand Binding Domain (LBD) protein expressed as a 6×His-Glutathione-S-Transferase (GST) fusion. The assay was performed in 96-well SPA plates (PerkinElmer, Cat. #1450-401) in 50 mM HEPES buffer, pH 7.4, containing 150 mM NaCl, 5 mM MgCl2, 10% (v/v) glycerol, 2 mM CHAPS, 0.5 mM β-octylglucopyranoside and 5 mM DTT. Tested compounds were dissolved in DMSO, and semi-log (3.162×) serial dilutions of the compounds were prepared in the same solvent. Two μL of the DMSO solutions were mixed with 28 μL of 8.6 nM 25-hydroxy [26,27-^3H]-cholesterol and 50 μL of 24 nM RORγ LBD. The plate was shaken at 700 rpm for 20 min and incubated for 10 min at rt, after which 40 μL of poly-Lys YSi SPA beads (PerkinElmer, Cat. #RPNQ0010) were added to achieve […] of the beads per well. The plate was incubated on an orbital shaker for 20 min and then for 10 min without agitation at rt. SPA signal for tritium beta radiation was registered on PerkinElmer Microbeta plate reader. […] The percent inhibition vs. concentration data were fit into a four-parameter model, and IC50 values were calculated from the fit as the concentrations corresponding to the inflection points on the dose-response curves. Inhibitory constants (Ki) were calculated using the following equation, where [RL] is the concentration in the assay and KD is a dissociation constant of 25-hydroxy [26,27-^3H]-cholesterol: […]
row,Molecule,Ki [nM]
1,"1-((2,2-difluorobenzo[d][1,3]dioxol-4-yl)methyl)-2-(difluoromethyl)-N-(4-((2-hydroxyethyl)sulfonyl)benzyl)-1H-benzo[d]imidazole-5-carboxamide [I-44]",< 100
2,"1-((2,2-difluorobenzo[d][1,3]dioxol-4-yl)methyl)-N-((R)-1-(4-(ethylsulfonyl)phenyl)-2-hydroxyethyl)-2-((R)-tetrahydrofuran-2-yl)-1H-benzo[d]imidazole-5-carboxamide [I-15]",< 100
3,"2-cyclopropyl-N-(4-(ethylsulfonyl)benzyl)-1-((6-oxo-1-(2,2,2-trifluoroethyl)-1,6-dihydropyridin-3-yl)methyl)-1H-benzo[d]imidazole-5-carboxamide [I-117]",> 1000
4,"CCOC(=O)Cc1ccc(CC(=O)Nc2ccc3c(c2)nc(C(F)(F)F)n3Cc2cccc3c2OC(F)(F)O3)cc1 [I-7, ethyl 2-(4-(2-((1-((2,2-difluorobenzo[d][1,3]dioxol-4-yl)methyl)-2-(trifluoromethyl)-1H-benzo[d]imidazol-5-yl)amino)-2-oxoethyl)phenyl)acetate]",100 to 1000
5,"CCS(=O)(=O)c1ccc(CNC(=O)c2ccc3c(c2)nc([C@H]2C[C@H]2C#N)n3Cc2cccc3c2OC(F)(F)O3)cc1 [I-56, 2-((1S,2R)-2-cyanocyclopropyl)-1-((2,2-difluorobenzo[d][1,3]dioxol-4-yl)methyl)-N-(4-(ethylsulfonyl)benzyl)-1H-benzo[d]imidazole-5-carboxamide]",100 to 1000
6,"CCS(=O)(=O)c1ccc(CNC(=O)c2ccc3c(c2)nc(C2CC2)n3C[C@H]2CCN(C(=O)OC(C)(C)C)C2)cc1 [I-107, tert-butyl (R)-3-((2-cyclopropyl-5-((4-(ethylsulfonyl)benzyl)carbamoyl)-1H-benzo[d]imidazol-1-yl)methyl)pyrrolidine-1-carboxylate]",> 1000
7,"CCS(=O)(=O)c1ccc(CNC(=O)c2ccc3c(c2)nc(C2CC2)n3C[C@H]2CCCN2C(=O)OC(C)(C)C)cc1 [I-108, tert-butyl (R)-2-((2-cyclopropyl-5-((4-(ethylsulfonyl)benzyl)carbamoyl)-1H-benzo[d]imidazol-1-yl)methyl)pyrrolidine-1-carboxylate]",> 1000
8,"CCS(=O)(=O)c1ccc(CNC(=O)c2ccc3c(c2)nc(C2CC2)n3Cc2cnn(CC(F)(F)F)c2)cc1 [I-111, 2-cyclopropyl-N-(4-(ethylsulfonyl)benzyl)-1-((1-(2,2,2-trifluoroethyl)-1H-pyrazol-4-yl)methyl)-1H-benzo[d]imidazole-5-carboxamide]",> 1000
9,"CCS(=O)(=O)c1ccc(CNC(=O)c2ccc3c(c2)nc(C2CC2)n3Cc2cccc(C#N)c2)cc1 [I-112, 1-(3-cyanobenzyl)-2-cyclopropyl-N-(4-(ethylsulfonyl)benzyl)-1H-benzo[d]imidazole-5-carboxamide]",100 to 1000
10,"CCS(=O)(=O)c1ccc([C@@H](CO)NC(=O)c2ccc3c(c2)nc(C2CC2)n3Cc2cccc3c2OC(F)(F)O3)nc1 [I-133.2, (S)-2-cyclopropyl-1-((2,2-difluorobenzo[d][1,3]dioxol-4-yl)methyl)-N-(1-(5-(ethylsulfonyl)pyridin-2-yl)-2-hydroxyethyl)-1H-benzo[d]imidazole-5-carboxamide]",100 to 1000
11,"CS(=O)(=O)c1ccc([C@H](CO)NC(=O)c2ccc3c(c2)nc(C(F)(F)F)n3Cc2cccc3c2OC(F)(F)O3)nc1 [I-135, (R)-1-((2,2-difluorobenzo[d][1,3]dioxol-4-yl)methyl)-N-(2-hydroxy-1-(5-(methylsulfonyl)pyridin-2-yl)ethyl)-2-(trifluoromethyl)-1H-benzo[d]imidazole-5-carboxamide]",100 to 1000
12,"CN1CCN(S(C)(=O)=O)CCC1CNC(=O)c1ccc2c(c1)nc(C(F)(F)F)n2Cc1cccc2c1OC(F)(F)O2 (stereo not shown) [I-171, 1-((2,2-difluorobenzo[d][1,3]dioxol-4-yl)methyl)-N-((4-methyl-1-(methylsulfonyl)-1,4-diazepan-5-yl)methyl)-2-(trifluoromethyl)-1H-benzo[d]imidazole-5-carboxamide]",100 to 1000
13,"CCS(=O)(=O)c1ccc(C(CO)(CO)NC(=O)c2ccc3c(c2)nc(C(F)(F)F)n3Cc2cccc3c2OC(F)(F)O3)cc1 [I-174, 1-((2,2-difluorobenzo[d][1,3]dioxol-4-yl)methyl)-N-(2-(4-(ethylsulfonyl)phenyl)-1,3-dihydroxypropan-2-yl)-2-(trifluoromethyl)-1H-benzo[d]imidazole-5-carboxamide]",< 100

# Continued, values first:
row,Ki [nM],Molecule
1,> 1000,"CCS(=O)(=O)c1ccc(CNC(=O)c2ccc3c(c2)nc(C(F)(F)F)n3Cc2nnc3n2CCC3)cc1 [I-86, 1-((6,7-dihydro-5H-pyrrolo[2,1-c][1,2,4]triazol-3-yl)methyl)-N-(4-(ethylsulfonyl)benzyl)-2-(trifluoromethyl)-1H-benzo[d]imidazole-5-carboxamide]"
2,> 1000,"CCS(=O)(=O)c1ccc(CNC(=O)c2ccc3c(c2)nc(C2CC2)n3Cc2ccn(CC(F)(F)F)n2)cc1 [I-114, 2-cyclopropyl-N-(4-(ethylsulfonyl)benzyl)-1-((1-(2,2,2-trifluoroethyl)-1H-pyrazol-3-yl)methyl)-1H-benzo[d]imidazole-5-carboxamide]"
3,100 to 1000,"CCS(=O)(=O)c1ccc(CNC(=O)c2ccc3c(c2)nc(C(F)(F)F)n3CC2CCN(C(=O)OC(C)(C)C)CC2)cc1 [I-145, tert-butyl 4-((5-((4-(ethylsulfonyl)benzyl)carbamoyl)-2-(trifluoromethyl)-1H-benzo[d]imidazol-1-yl)methyl)piperidine-1-carboxylate]"
4,100 to 1000,"CCS(=O)(=O)c1ccc(CNC(=O)c2ccc3c(c2)nc(C(F)(F)F)n3Cc2cccn(C)c2=O)cc1 [I-146, N-(4-(ethylsulfonyl)benzyl)-1-((1-methyl-2-oxo-1,2-dihydropyridin-3-yl)methyl)-2-(trifluoromethyl)-1H-benzo[d]imidazole-5-carboxamide]"
5,> 1000,"CCS(=O)(=O)c1ccc(CNC(=O)c2ccc3c(c2)nc(C2CC2)n3C[C@H]2CCN(CC(F)(F)F)C2)cc1 [I-156, (S)-2-cyclopropyl-N-(4-(ethylsulfonyl)benzyl)-1-((1-(2,2,2-trifluoroethyl)pyrrolidin-3-yl)methyl)-1H-benzo[d]imidazole-5-carboxamide]"
6,> 1000,"CCS(=O)(=O)c1ccc(CNC(=O)c2ccc3c(c2)nc(C2CC2)n3C[C@H]2CCCN2CC(F)(F)F)cc1 [I-157, (R)-2-cyclopropyl-N-(4-(ethylsulfonyl)benzyl)-1-((1-(2,2,2-trifluoroethyl)pyrrolidin-2-yl)methyl)-1H-benzo[d]imidazole-5-carboxamide]"
7,> 1000,"CCS(=O)(=O)c1ccc(CNC(=O)c2ccc3c(c2)nc(C2CC2)n3C[C@H]2CCN(c3ncc(F)cn3)C2)cc1 [I-159, (R)-2-cyclopropyl-N-(4-(ethylsulfonyl)benzyl)-1-((1-(5-fluoropyrimidin-2-yl)pyrrolidin-3-yl)methyl)-1H-benzo[d]imidazole-5-carboxamide]"
